The source of these data is patent US20090076050A1, “SYNERGISTIC TUMOR-KILLING EFFECT OF RADIATION AND BERBERINE COMBINED TREATMENT IN LUNG CANCER” (CHUNG SHAN MEDICAL U., priority 2007, published 2009).

Series [1] has as its system A549 cells. Put plainly: acridine orange staining of acidic vesicular organelles (microscopy and FACS). To be noted: for proportion of acridine orange-positive cells: 24 h, IR alone 12.5%. It counts as cell-based, human. As to the method:
Autophagic cell death has been recognized as programmed cell death type II, it has been detected in a variety of cancer cells treated with radiation or chemotherapy. Therefore, it had been examined whether IR treatment combined with berberine induced autophagic cell death in A549 cells by electron microscopic analysis (FIG. 4A). Cells were harvested by trypsinization, and fixed with 2% glutaraldehyde, 4% paraformaldehyde and 1% tannic acid in 0.1 mol/L cacodylate buffer, pH 7.4, for 25 h. The cells were stained with an osmium-thiocarbohydrazide-osmium (OTO). After staining, the cells were dehydrated in a graded series of 70% to 100% EtOH and then immersed serially with 1:1 hexamethyldisilazane and absolute ethanol. One micrometer thin sections were cut, and the gels were coated with 500 Å of gold in a JEOL Vacuum sputter coater and viewed in a JEOL […] electron microscope with scanning attachment (JEOL, Tokyo, Japan). […] Autophagy is characterized by the development of AVOs, which is measured by vital staining of acridine orange. Acridine orange (Polysciences, Warrington, Pa.) was added to cells at a final concentration of 1 μg/mL for a period of 15 min. Pictures were taken with a fluorescent microscope (Nikon TE-300) equipped with a 490-nm band-pass blue excitation filters, a 500-nm dichroic mirror, and a 515-nm-long pass-barrier filter. To quantitate acidic vesicular organelles, Stained cells were collected for the FACScan (Becton Dickinson, San Jose, Calif.) using CellQuest software (Becton Dickinson). Acridine orange-positive cells with bright red fluorescence were detected among A549 cells 24 h after co-treated with berberine and IR (6 Gy), whereas they were sparse among non-treated cells or irradiated cells (FIG. 4B). […] FIG. 4C).

For a further series, the system named is LLC cells. Put plainly: MTT cell viability, berberine combined with IR, LLC cells. To be noted: LLC cells (data not shown). It counts as cell-based. From the text:
The data were depicted in FIG. 1C after normalization.

The nature of series [2]: blood biochemical analysis in LLC model mice. It counts as in vivo, C57BL/6 mice. To be noted: all six groups incl. berberine 1.0, 2.0 mg/kg i.p. alone or with IR, end of experiment. As to the method: (§1) The application of the additive cytotoxicity of IR combined with berberine in cancer treatment was further evidenced in an in vivo Lewis lung carcinoma (LLC) model in mice (Camphausen K, et al. Cancer Res 2001; 61:2207-11). Male C57BL/6 mice aged 4-6 weeks (National Taiwan University Animal Center, Taiwan) were used. To form a tumor xenograft, Lewis lung cells (2×10^6) were injected s.c. into the right hind limb. Animals were randomized into six groups: control, irradiation (IR) alone, berberine (1.0, 2.0 mg/kg) alone, and IR combined with berberine (1.0, 2.0 mg/kg). For tumor irradiation, mice were immobilized in a customized harness that exposed the right hind leg while shielding the remainder of the body by 3.5 cm of lead. Mice were exposed to a single dose of 8 Gy. […] To obtain tumor growth curves, three orthogonal tumor diameters were measured every 4-day intervals with a vernier caliper, and the mean values were calculated. […] Primary tumor growth delay was measured by calipers in two dimensions, and the volumes were calculated according to the formula: tumor volume=(width) 2×length×0.52. […] The tumor volume at the primary site of each group was measured before treatment, and the average tumor volume was designated as T0. When the animals were sacrificed at the end of experiment, the xenografts were removed, and the tumor volume was determined and presented as fold of T0. […]

The next series concerns bcl-2. Put plainly: immunohistochemistry of bcl-2 in xenograft. It counts as in vivo, C57BL/6 mice. As to the method: as §1
In series [3] the test system is A549 cells. Put plainly: apoptosis hallmarks: DAPI stain, DNA electrophoresis, immunoblotting of caspase-3 and PARP. It counts as cell-based, human. To be noted: 24 h. As to the method:
The role of apoptosis in the sensitivity of A549 cells to IR induced by berberine was further clarified by DAPI stain. DNA extraction and electrophoresis on agarose gel were carried out as described previously (Solary E, et al. Therapie 2001; 56:511-18). After the indicated treatments, cells were fixed with 3 mL of 4% paraformaldehyde. To stain the cells, 500 μL of a 0.5 μg/mL chilled solution of DAPI (Invitrogen) stain was added and allowed to sit for 5 min. The cells were then rinsed with PBS solution and counted under a fluorescent microscope. For positive control of DNA fragmentation and DAPI stain, A549 cells were treated with 30 μM etoposide for 24 h. […] This contention was further confirmed by the lack of apoptotic DNA fragmentation and activation of caspase-3 and poly-(ADP-ribose) polymerases (PARP) as analyzed by DNA electrophoresis and immunoblotting (FIG. 3B, 3C). After the indicated treatment, the resultant supernatants were separated in 12%˜18% polyacrylamide gels. The blot was incubated with a polyclonal antibody against LC3 (gift from T. Yoshimori), PARP, caspase-3, bcl-2, beclin-1 and β-actin (Santa Cruz biotechnology, USA) for 2 h, and then with an appropriate peroxidase-conjugated secondary antibody (Sigma) for 1 h at 37° C.
For orientation: In western blotting, separated proteins are transferred to a membrane and probed.

With `COc1ccc2cc3[n+](cc2c1OC)CCc1cc2c(cc1-3)OCO2` [berberine, Berberine], the figures for the “proportion of acridine orange-positive cells” value in the series with A549 cells [1] (6 Gy irradiation combined with 5.0 μM berberine) and in the series with A549 cells [1] (6 Gy irradiation combined with 10 μM berberine) were 50.3% and 62.6%, respectively. The “acridine orange-positive cells with bright red fluorescence (microscopy)” value in the series on A549 cells [1] (24 h after co-treatment with berberine and IR (6 Gy)) was “detected”. Also, the “dose and time dependent synergic-killing effect” value in the series with LLC cells was “also observed”. Also, the “serum levels of AST, ALT, urea nitrogen, creatinine, complete blood cell counts, triglyceride and total cholesterol” value in series [2] was “no difference among groups”. Also, the “bcl-2 protein expression in xenograft” value in the series on bcl-2 (berberine alone groups) and with bcl-2 (co-treatment groups (berberine + IR)) was “reduced” throughout. In the series with A549 cells [3] (berberine with IR, DNA electrophoresis and immunoblotting (FIG. 3B, 3C)), the “apoptotic DNA fragmentation and activation of caspase-3 and PARP” value is listed as “lack”. Further, the “number of apoptotic cells (DAPI stain)” value with A549 cells [3] (co-treatment of berberine (>5.0 μM) with IR (6 Gy)) is listed as “increased only slightly”.
